Key:
[1] = tested on: Th17 CD4+ T cells and circulating neutrophils; test: Systemic immune cell analysis (tetramer staining, cytokine production, IL-17RC, reactive oxygen) in colonized mice; details: fluconazole treated colonized mice
Text: Fluorophore- or biotin-conjugated antibodies used mouse cell analysis are as follows: anti-CD4 (GK1.5, eBioscience), anti-CD8a (53-6.7, eBioscience), anti-CD11b (M1/70, Biolegend), anti-CD11c (N418, Biolegend), anti-F4/80 (BM8, eBioscience), anti-B220 (RA3-6B2, Biolegend), anti-CD44 (IM7, Biolegend), anti-CD45 (30F11, invitrogen), anti-Ly6G (1A8, BD bioscience), anti-Ly6C (HK1.4, Biolegend), anti-Gr1 (RB6-8C5, eBioscience), anti-IL-17RC (polyclonal IgG, R&D Systems), anti-FOXP3 (FJK-16S, eBioscience), anti-RORγt (Q31-378, BD bioscience), anti-T-bet (4B10, Biolegend), anti-IFN-γ (XMG1.2, eBioscience), anti-IL17A (TC 11-18H10.1, Biolegend), anti-IL17F (9D3.1C8, Biolegend). Fluorophore-conjugated antibodies were used for human cell analysis are as follows: anti-CD4 (OKT4, eBioscience), anti-CD15 (H198, invitrogen), anti-CD16 (3G8, Biolegend), anti-IL-17A (eBio64DEC17, eBioscience), anti-IL17F (O33-782, BD Bioscience), anti-IL17RC (309822, R&D Systems) with staining in the presence of Human Fc block (BD Bioscience). […] Single cell suspensions from spleen and peripheral lymph nodes were stained with APC conjugated I-Ab:2W1S55-68 tetramer at room temperature for 60 minutes, and enriched using anti-APC antibody conjugated magnetic beads (Militenyi Biotec) as described (Moon et al., Immunity 27:203-213 (2007)). Samples were acquired using an FACSCanto (BD) cytometer and analyzed using FlowJo software (Tree Star).

C. albicans [2] = details: mouse, in vivo
C. albicans [3] = details: mouse, in vivo; remark: listed apart in the source
[4] = tested on: DSS induced intestinal injury; test: DSS induced intestinal injury (survival, colon length, permeability, histology); format: in vivo, mouse; details: for susceptibility to DSS (mortality): antibiotic treated mice, intrarectal administration every other day from one day prior to DSS
influenza A virus = format: in vivo, mouse
[5] = tested on: allergic airway inflammation; test: House dust mite airway reactivity and inflammation; format: in vivo, mouse; details: colonized mice, colonization eradicated with fluconazole
Protocol: Mice were anesthetized with ketamine/xylazine and hung by their front incisors on an angled stand. 100 μg house dust mite extract (Greer Laboratories) in 40 μL sterile saline was administered intratracheally. 10 days later, mice were challenged with the same amount of house dust mite extract. 48 hours after the second intratracheal challenge, airway resistance in response to inhaled methacholine (100 mg/mL) was measured using FlexiVent (SCIREQ). Saline perfused lungs were minced and digested with collagenase D (1 mg/mL) and DNAse (0.1 mg/mL) in DMEM media supplemented with 10% fetal bovine serum, 1% L-glutamine, 10 mM HEPES, 1% penicillin-streptomycin (Cellgro) for 30 minutes at 37° C. with gentle shaking (200 rpm). The tissue digest was then passed through a 70 μm filter to obtain single cell suspensions.

C. albicans [6] = test: Depletion of intestinal C. albicans with fluconazole in antibiotic cocktail treated mice; format: in vivo, mouse; details: C. albicans mono-colonized mice, 10 days after adding fluconazole to antibiotic-supplemented drinking water
NF-κB = test: RAW-Blue stimulation and quantification of NF-κB activity; format: cell-based, murine; details: 500 μg/mL
Protocol: RAW-Blue cells (InvivoGen) cells are derived from the murine RAW 264.7 macrophages with chromosomal integration of a secreted embryonic alkaline phosphatase reporter construct induced by NF-κB. 5×10^4 RAW-Blue cells were seeded 24 hours prior to addition of the indicated blocking antibody. One hour thereafter, mannan (Sigma) was added at a final concentration of 500 μg/mL. Supernatants were collected after 24 hours to quantify NF-κB activity by colorimetric assay using QUANTI-Blue reagent (InvivoGen).

[7] = antibiotic treated mice, intrarectal administration

With `OC(Cn1cncn1)(Cn1cncn1)c1ccc(F)cc1F` [fluconazole] the “IL-17RC expression by circulating leukocyte and neutrophils” value [1] was “similarly overturned”, the “RORγt expression by I-Ab:2W1S specific CD4+ T cells” value [1] was “reduced to background levels” and the “expansion of circulating neutrophils” value [1] was “similarly overturned”. For the same compound, the “neutrophil production of reactive oxygen species” value [1] was “similarly overturned”, the “number of CD4+ T cells with commensal C. albicans I-Ab:2W1S specificity” value [1] was “reduced to background levels” and the “IL-17A and IL-17F production by spleen and lymph node CD4+ T cells” value ([1]; heat-killed C. albicans stimulation) was “similarly overturned”. For the same compound, the “C. albicans intestinal colonization” value (C. albicans [2]) was “efficiently eliminates C. albicans intestinal colonization”, the “fungal pathogen burden in the kidney after intravenous infection” value (C. albicans [3]) was “significantly increased fungal pathogen burden in the kidney” and the “survival and time-to-death after DSS challenge” value ([4]; mouse, in vivo) was “efficiently abolished the improved survival and delayed time-to-death”. The “protection against influenza A” value (influenza A virus; mouse, in vivo) was “similarly overturned”, the “accumulation of RORγt+ and IL-17 producing CD4+ T cells in the lungs” value [5] was “efficiently overturned” and the airway responsiveness [5] was “efficiently overturned”. The “recoverable fungi in the feces” value (C. albicans [6]) was “rapidly declined to undetectable levels”.
curdlan was tested, and the “susceptibility to DSS (mortality)” value [4] was “failed to improve mortality”.
mannan was tested, and the “susceptibility to DSS (mortality)” value [4] was “mitigated”, the “survival and accumulation of protective immune cells” value (influenza A virus; [7]) was “restored to levels comparable to C. albicans colonized controls” and the “susceptibility to influenza A virus infection” value (influenza A virus; [7]) was “mitigated”. For the same compound, the “mannan stimulated cell activation” value (NF-κB; with antibody blockade against TLR2) was “not significantly impacted”, the “mannan stimulated cell activation” value (NF-κB; with antibody blockade against dectin-2) was “not significantly impacted” and the “mannan stimulated cell activation” value (NF-κB; with antibody blockade against the mannose receptor) was “not significantly impacted”. The “mannan induced NF-κB” value (NF-κB; with neutralization of TLR4) was “significantly reduced” and the “mannan induced NF-κB” value (NF-κB; with neutralization of dectin-1) was “significantly reduced”.
